# Results published in BindingDB's records for doi:10.1111/j.1476-5381.1993.tb13617.x (Glaxo Group Research, 1993).
# Several values for one entry are separate records, joined by “and”; a condition that tells them apart may be missing. Identical values can stand only once. Counter-ions that a name gives are not always drawn.
# Target: 5-hydroxytryptamine receptor 4 (Cavia porcellus, UniProt O70528)
# Sequence (O70528 whole entry): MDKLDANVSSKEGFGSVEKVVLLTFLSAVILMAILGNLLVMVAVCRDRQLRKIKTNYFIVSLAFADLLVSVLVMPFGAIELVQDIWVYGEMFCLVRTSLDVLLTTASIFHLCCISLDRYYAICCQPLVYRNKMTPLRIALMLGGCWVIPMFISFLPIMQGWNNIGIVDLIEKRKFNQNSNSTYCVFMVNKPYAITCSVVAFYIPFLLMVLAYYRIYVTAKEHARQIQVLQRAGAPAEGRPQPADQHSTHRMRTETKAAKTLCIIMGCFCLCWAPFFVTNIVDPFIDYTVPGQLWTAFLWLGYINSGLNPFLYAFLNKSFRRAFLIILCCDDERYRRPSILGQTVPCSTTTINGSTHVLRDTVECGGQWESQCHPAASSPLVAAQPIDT
row,SMILES,Ki
1,CN1C2CCC1CC(OC(=O)c1c[nH]c3ccccc13)C2 (configuration not stated),63.1 nM
2,CCN(CC)CCNC(=O)c1cc(Cl)c(N)cc1OC [4-amino-5-chloro-N-[2-(diethylamino)ethyl]-2-methoxy-benzamide;hydrochloride],631 nM and 501 nM
3,"Cn1cc(CCN)c2cc(O)ccc21 [5-HT,omega-N-Me]",1580 nM
4,CCn1c(=O)n(C(=O)NC2CC3CCC(C2)N3C)c2ccccc21 (configuration not stated) [BIMU 1],15.8 nM
5,CC(C)n1c(=O)n(C(=O)NC2C[C@H]3CC[C@@H](C2)N3C)c2ccccc21 (some centres not stated) [BIMU 8],25.1 nM and 12.6 nM
6,Cn1cc(C(=O)OCC2CCN(CCNS(C)(=O)=O)CC2)c2ccccc21 [GR 113808],0.25 nM and 0.31 nM
7,COc1cc(N)c(Cl)cc1C(=O)NC1CCN2CCCC1C2 (configuration not stated) [NSC_3035240],126 nM and 100 nM
8,CCN(CC)CCOC(=O)c1cc(Cl)c(N)cc1OC [SDZ-205557],7.94 nM and 6.3 nM
9,"COc1cc(N)c(Cl)cc1C(=O)NC1CN2CCC1CC2 (configuration not stated) [ZACOPRIDE,R]",200 nM and 158 nM and 251 nM
10,"COc1cc(N)c(Cl)cc1C(=O)N[C@@H]1CN2CCC1CC2 [ZACOPRIDE,R]",1000 nM and 501 nM
11,NCCc1c[nH]c2ccc(C(N)=O)cc12 [[3H]-5-carboxamidotryptamine],6310 nM
12,"COc1ccc2[nH]cc(CCN)c2c1 [tryptamine, 5-Methoxy]",631 nM and 316 nM
